pIC50: −log10 of the molar value.
Target: EGFR (Homo sapiens (Human), UniProt P00533)
Assay: EGFR kinase inhibition, luciferase-coupled chemiluminescent assay (LCCA)
Conditions: read-out: EGFR IC50

EGFR, sequence (P00533 672-1210): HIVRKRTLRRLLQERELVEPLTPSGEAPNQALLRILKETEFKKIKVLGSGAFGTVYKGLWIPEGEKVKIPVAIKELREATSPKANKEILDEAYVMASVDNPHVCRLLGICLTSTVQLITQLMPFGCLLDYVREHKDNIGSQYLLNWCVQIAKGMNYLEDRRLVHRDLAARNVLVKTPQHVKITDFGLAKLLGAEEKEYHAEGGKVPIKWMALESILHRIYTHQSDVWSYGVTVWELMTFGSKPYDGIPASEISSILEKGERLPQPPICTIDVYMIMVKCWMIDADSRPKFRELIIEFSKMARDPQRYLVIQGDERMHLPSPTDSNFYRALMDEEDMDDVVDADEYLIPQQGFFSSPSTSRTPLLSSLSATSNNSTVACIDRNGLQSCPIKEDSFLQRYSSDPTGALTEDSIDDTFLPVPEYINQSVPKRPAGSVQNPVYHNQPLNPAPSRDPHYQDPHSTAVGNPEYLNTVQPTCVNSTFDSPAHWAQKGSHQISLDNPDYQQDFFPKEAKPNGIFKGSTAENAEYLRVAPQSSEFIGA

pIC50, > 7.30:
COc1cc2c(Nc3ccc(Br)c(Cl)c3)ncnc2cc1O[C@H]1CO[C@@H]2C3OC(C)(C)O[C@H]3O[C@H]12 (stereo partly drawn) [Example 80, 3,6-anhydro-5-O-[4-[(4-bromo-3-chlorophenyl)amino]-6-(methyloxy)quinazolin-7-yl]-1,2-O-(1-methylethylidene)-beta-L-xylo-hexofuranose]
COc1cc2c(Nc3ccc(F)c(F)c3F)ncnc2cc1O[C@@H]1CO[C@@H]2[C@H]1OC[C@H]2F [Example 84, 1,4:3,6-dianhydro-2-deoxy-2-fluoro-5-O-{6-(methyloxy)-4-[(2,3,4-trifluorophenyl)amino]quinazolin-7-yl}-D-iditol]
COc1cc2c(Nc3cccc(F)c3F)ncnc2cc1O[C@@H]1CO[C@@H]2[C@H]1OC[C@H]2F [Example 92, 1,4:3,6-dianhydro-2-deoxy-5-O-[4-[(2,3-difluorophenyl)amino]-6-(methyloxy)quinazolin-7-yl]-2-fluoro-D-iditol]
COc1cc2c(Nc3ccc(Br)c(Cl)c3Cl)ncnc2cc1O[C@@H]1CO[C@@H]2[C@H]1OC[C@H]2F [Example 103, 1,4:3,6-dianhydro-5-O-[4-[(4-bromo-2,3-dichlorophenyl)amino]-6-(methyloxy)quinazolin-7-yl]-2-deoxy-2-fluoro-D-iditol]
COc1cc2c(Nc3cc(Cl)c(Cl)cc3F)ncnc2cc1O[C@@H]1CO[C@@H]2[C@H]1OC[C@H]2F [Example 105, 1,4:3,6-dianhydro-2-deoxy-5-O-[4-[(4,5-dichloro-2-fluorophenyl)amino]-6-(methyloxy)quinazolin-7-yl]-2-fluoro-D-iditol]
COc1cc2c(Nc3cccc(Cl)c3)ncnc2cc1O[C@@H]1CO[C@@H]2[C@H]1OC[C@H]2F [Example 114, 1,4:3,6-dianhydro-5-O-[4-[(3-chlorophenyl)amino]-6-(methyloxy)quinazolin-7-yl]-2-deoxy-2-fluoro-D-iditol]
COc1cc2c(Nc3ccccc3Br)ncnc2cc1O[C@@H]1CO[C@@H]2[C@H]1OC[C@H]2F [Example 128, 1,4:3,6-dianhydro-5-O-[4-[(2-bromophenyl)amino]-6-(methyloxy)quinazolin-7-yl]-2-deoxy-2-fluoro-D-iditol]
COc1cc2c(Nc3ccc(Br)cc3)ncnc2cc1O[C@@H]1CO[C@@H]2[C@H]1OC[C@H]2F [Example 130, 1,4:3,6-dianhydro-5-O-[4-[(4-bromophenyl)amino]-6-(methyloxy)quinazolin-7-yl]-2-deoxy-2-fluoro-D-iditol]
COc1cc2c(Nc3ccc(C)c(Br)c3)ncnc2cc1O[C@@H]1CO[C@@H]2[C@H]1OC[C@H]2F [Example 131, 1,4:3,6-dianhydro-5-O-[4-[(3-bromo-4-methylphenyl)amino]-6-(methyloxy)quinazolin-7-yl]-2-deoxy-2-fluoro-D-iditol]
COc1cc2c(Nc3cc(C)cc(C)c3)ncnc2cc1O[C@@H]1CO[C@@H]2[C@H]1OC[C@H]2F [Example 133, 1,4:3,6-dianhydro-2-deoxy-5-O-[4-[(3,5-dimethylphenyl)amino]-6-(methyloxy)quinazolin-7-yl]-2-fluoro-D-iditol]
COc1cc(Nc2ncnc3cc(O[C@@H]4CO[C@@H]5[C@H]4OC[C@H]5F)c(OC)cc23)c(OC)cc1Cl [Example 136, 1,4:3,6-dianhydro-5-O-[4-{[4-chloro-2,5-bis(methyloxy)phenyl]amino}-6-(methyloxy)quinazolin-7-yl]-2-deoxy-2-fluoro-D-iditol]
COc1cc2c(Nc3ccc(Cl)c(Cl)c3)ncnc2cc1OCC1CNCCO1 (stereo not drawn) [Example 144, N-(3,4-dichlorophenyl)-6-(methyloxy)-7-[(morpholin-2-ylmethyl)oxy]quinazolin-4-amine]
COc1cc2c(Nc3ccc(Cl)c(Cl)c3)ncnc2cc1OCC1CNCCCO1 (stereo not drawn) [Example 152, N-(3,4-dichlorophenyl)-6-(methyloxy)-7-[(1,4-oxazepan-2-ylmethyl)oxy]quinazolin-4-amine]
COc1cc2c(Nc3ccc(Cl)c(Cl)c3)ncnc2cc1OCc1cccc2nsnc12 [Example 159, 7-[(2,1,3-benzothiadiazol-4-ylmethyl)oxy]-N-(3,4-dichlorophenyl)-6-(methyloxy)quinazolin-4-amine]
COc1cc2c(Nc3ccc(Cl)c(Cl)c3)ncnc2cc1OCc1nc2ccccc2s1 [Example 162, 7-[(1,3-benzothiazol-2-ylmethyl)oxy]-N-(3,4-dichlorophenyl)-6-(methyloxy)quinazolin-4-amine]
COc1cc2c(Nc3ccc(Cl)c(Cl)c3)ncnc2cc1OCc1cnn(-c2ccccc2)c1 [Example 165, N-(3,4-dichlorophenyl)-6-(methyloxy)-7-{[(1-phenyl-1H-pyrazol-4-yl)methyl]oxy}quinazolin-4-amine]
COc1cc2c(Nc3ccc(Cl)c(Cl)c3)ncnc2cc1OCc1nc(-c2ccc(Cl)cc2)no1 [Example 168, 7-({[3-(4-chlorophenyl)-1,2,4-oxadiazol-5-yl]methyl}oxy)-N-(3,4-dichlorophenyl)-6-(methyloxy)quinazolin-4-amine]
COc1cc2c(Nc3ccc(Cl)c(Cl)c3)ncnc2cc1OCc1c(OC)ccc2cc(Br)ccc12 [Example 169, 7-({[6-bromo-2-(methyloxy)naphthalen-1-yl]methyl}oxy)-N-(3,4-dichlorophenyl)-6-(methyloxy)quinazolin-4-amine]
COc1cc2c(Nc3ccc(Cl)c(Cl)c3)ncnc2cc1OCc1ccc(Cl)nc1 [Example 171, 7-{[(6-chloropyridin-3-yl)methyl]oxy}-N-(3,4-dichlorophenyl)-6-(methyloxy)quinazolin-4-amine]
COc1cc2c(Nc3ccc(Cl)c(Cl)c3)ncnc2cc1OCc1csc(C)n1 [Example 173, N-(3,4-dichlorophenyl)-6-(methyloxy)-7-{[(2-methyl-1,3-thiazol-4-yl)methyl]oxy}quinazolin-4-amine]
COc1cc2c(Nc3ccc(Cl)c(Cl)c3)ncnc2cc1OCc1cc(Cl)cc2c1OCOC2 [Example 174, 7-{[(6-chloro-4H-1,3-benzodioxin-8-yl)methyl]oxy}-N-(3,4-dichlorophenyl)-6-(methyloxy)quinazolin-4-amine]
COc1cc2c(Nc3ccc(Cl)c(Cl)c3)ncnc2cc1OCc1cc(-c2ccccc2)no1 [Example 177, N-(3,4-dichlorophenyl)-6-(methyloxy)-7-{[(3-phenylisoxazol-5-yl)methyl]oxy}quinazolin-4-amine]
COc1cc2c(Nc3ccc(Cl)c(Cl)c3)ncnc2cc1OCc1c(C)cc(C)cc1C [Example 178, N-(3,4-dichlorophenyl)-6-(methyloxy)-7-{[(2,4,6-trimethylphenyl)methyl]oxy}quinazolin-4-amine]
COc1ccc(-c2cc(COc3cc4ncnc(Nc5ccc(Cl)c(Cl)c5)c4cc3OC)on2)cc1 [Example 180, N-(3,4-dichlorophenyl)-6-(methyloxy)-7-[({3-[4-(methyloxy)phenyl]isoxazol-5-yl}methyl)oxy]quinazolin-4-amine]
COc1cc2c(Nc3ccc(Cl)c(Cl)c3)ncnc2cc1OCc1c(C(F)(F)F)nn(C)c1Oc1ccc(Cl)cc1Cl [Example 181, N-(3,4-dichlorophenyl)-7-({[5-[(2,4-dichlorophenyl)oxy]-1-methyl-3-(trifluoromethyl)-1H-pyrazol-4-yl]methyl}oxy)-6-(methyloxy)quinazolin-4-amine]
COc1cc2c(Nc3ccc(Cl)c(Cl)c3)ncnc2cc1OCc1noc(COCc2ccccc2)n1 [Example 211, N-(3,4-dichlorophenyl)-6-(methyloxy)-7-{[(5-{[(phenylmethyl)oxy]methyl}-1,2,4-oxadiazol-3-yl)methyl]oxy}quinazolin-4-amine]
CCN1CCC[C@H]1c1noc(COc2cc3ncnc(Nc4ccc(Cl)c(Cl)c4)c3cc2OC)n1 [Example 255, N-(3,4-dichlorophenyl)-7-[({3-[(2S)-1-ethylpyrrolidin-2-yl]-1,2,4-oxadiazol-5-yl}methyl)oxy]-6-(methyloxy)quinazolin-4-amine]
CCN1CCC[C@H]1c1nc(COc2cc3ncnc(Nc4ccc(Cl)c(Cl)c4)c3cc2OC)cs1 [Example 256, N-(3,4-dichlorophenyl)-7-[({2-[(2S)-1-ethylpyrrolidin-2-yl]-1,3-thiazol-4-yl}methyl)oxy]-6-(methyloxy)quinazolin-4-amine]
C=CCCCCN1CCOC(COc2cc3ncnc(Nc4ccc(Cl)c(Cl)c4)c3cc2OC)C1 (stereo not drawn) [Example 274, N-(3,4-dichlorophenyl)-7-{[(4-hex-5-en-1-ylmorpholin-2-yl)methyl]oxy}-6-(methyloxy)quinazolin-4-amine]
COC(=O)CCN1CCOC(COc2cc3ncnc(Nc4ccc(Cl)c(Cl)c4)c3cc2OC)C1 (stereo not drawn) [Example 276, methyl 3-[2-({[4-[(3,4-dichlorophenyl)amino]-6-(methyloxy)quinazolin-7-yl]oxy}methyl)morpholin-4-yl]propanoate]

Target: EphB4 (Homo sapiens (Human), UniProt P54760)
Sequence (P54760 605-890): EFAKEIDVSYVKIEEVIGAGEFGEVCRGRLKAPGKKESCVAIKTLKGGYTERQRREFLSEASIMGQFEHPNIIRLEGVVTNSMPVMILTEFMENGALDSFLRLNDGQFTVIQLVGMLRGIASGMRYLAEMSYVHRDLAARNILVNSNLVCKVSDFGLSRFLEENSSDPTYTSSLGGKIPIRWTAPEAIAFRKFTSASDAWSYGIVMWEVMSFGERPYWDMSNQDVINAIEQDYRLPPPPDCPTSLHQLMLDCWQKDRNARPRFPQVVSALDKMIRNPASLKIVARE
Assay: EphB4 kinase inhibition, 33P phosphoryl transfer assay (radiometric)
Format: biochemical
Conditions: not given
Procedure: Phosphorylated substrate products are quantified by scintillation spectrometry.
Kinase activity and compound inhibition are investigated using one or more of the three assay formats described below. The ATP concentrations are selected near its Michaelis-Menten constant (KM) for each individual kinase. Dose-response experiments are performed at ten different inhibitor concentrations in a 384-well plate format. […] These parameters are obtained by nonlinear regression algorithm built into ActivityBase software (available from ID Business Solutions Ltd., of Guildford, Surrey, UK). ^33P Phosphoryl Transfer Assay (Radiometric)
Greiner 384-well white clear bottom high binding plates (available from Greiner Bio-One, Inc., of Longwood, Fla.) are coated with 2 μg/well of protein or peptide substrate in a 50 μL volume overnight at ambient temperature. […] The coating solution is aspirated and the plates are washed once with 50 μL of assay buffer and padded dry. Subsequently compounds and enzymes are mixed with γ ^33P-ATP (3.3 μCi/nmol) in a total volume of 20 uL in suitable assay buffers (see Table 2). For example the final EphB4 reaction solution contains 20 mM TrisHCl, pH 7.5, 10 mM MgCl2, 0.01% Triton X-100, 0.1 mM NaVO3, 5 nM EphB4 enzyme and 5 μM ATP. […] The plates are subsequently washed 6-12 times with PBST or TBS buffer.

pIC50, > 7.30:
COc1cc2c(Nc3ccc(Br)c(Cl)c3)ncnc2cc1O[C@H]1CO[C@@H]2C3OC(C)(C)O[C@H]3O[C@H]12 (stereo partly drawn) [Example 80, 3,6-anhydro-5-O-[4-[(4-bromo-3-chlorophenyl)amino]-6-(methyloxy)quinazolin-7-yl]-1,2-O-(1-methylethylidene)-beta-L-xylo-hexofuranose]
COc1cc2c(Nc3ccc(F)c(F)c3F)ncnc2cc1O[C@@H]1CO[C@@H]2[C@H]1OC[C@H]2F [Example 84, 1,4:3,6-dianhydro-2-deoxy-2-fluoro-5-O-{6-(methyloxy)-4-[(2,3,4-trifluorophenyl)amino]quinazolin-7-yl}-D-iditol]
COc1cc2c(Nc3cccc(F)c3F)ncnc2cc1O[C@@H]1CO[C@@H]2[C@H]1OC[C@H]2F [Example 92, 1,4:3,6-dianhydro-2-deoxy-5-O-[4-[(2,3-difluorophenyl)amino]-6-(methyloxy)quinazolin-7-yl]-2-fluoro-D-iditol]
COc1cc2c(Nc3ccc(Br)c(Cl)c3Cl)ncnc2cc1O[C@@H]1CO[C@@H]2[C@H]1OC[C@H]2F [Example 103, 1,4:3,6-dianhydro-5-O-[4-[(4-bromo-2,3-dichlorophenyl)amino]-6-(methyloxy)quinazolin-7-yl]-2-deoxy-2-fluoro-D-iditol]
COc1cc2c(Nc3cc(Cl)c(Cl)cc3F)ncnc2cc1O[C@@H]1CO[C@@H]2[C@H]1OC[C@H]2F [Example 105, 1,4:3,6-dianhydro-2-deoxy-5-O-[4-[(4,5-dichloro-2-fluorophenyl)amino]-6-(methyloxy)quinazolin-7-yl]-2-fluoro-D-iditol]
COc1cc2c(Nc3cccc(Cl)c3)ncnc2cc1O[C@@H]1CO[C@@H]2[C@H]1OC[C@H]2F [Example 114, 1,4:3,6-dianhydro-5-O-[4-[(3-chlorophenyl)amino]-6-(methyloxy)quinazolin-7-yl]-2-deoxy-2-fluoro-D-iditol]

Source: patent US9796704B2, “Substituted quinazolines as receptor-type kinase inhibitors” (Symphony Evolution, Inc., priority 2002, dated 2017)
